This is an account of results in publication PMC11199504, “New hemisynthetic derivatives of sphaeropsidin phytotoxins triggering severe endoplasmic reticulum swelling in cancer cells” (Scientific Reports, 2024).

Where two headings read alike, the source gives them in different places.

The subject of one assay is Drug-resistant models. The experiment in a line: MTT assay, mean of drug-resistant models. It is filed as cell-based. Conditions: 72 h, read-out: IC50 determined by MTT assays, mean of drug-resistant models. From the text:
(§1) Cancer cell lines were obtained from either the European Collection of Cell Cultures (ECACC; Salisbury, UK) or the American Type Culture Collection (ATCC; Manassas, VA). The two glioma cell lines were the U373 (ECACC code 08061901) and Hs683 (ATCC HTB-138) cell lines. The carcinoma cell lines were the A549 non-small cell carcinoma cell line (ATCC code CCL 185) and the MCF-7 mammary breast carcinoma cell line (ATCC code HTB-22). The melanoma cell lines were the mouse B16F10 cells (ATCC code CRL-6475) and the human SKMEL-28 cells (ATCC code HTB-72). The ovarian cancer cell line A2780 and its cisplatin-resistant subline A2780cis were obtained from Sigma-Aldrich (St. Louis, MO, USA). Colon cancer HCT116 cells were obtained from ATCC (CCL-247) and the oxaliplatin-resistant subline HCT116/OxR established in the W. Berger lab[59]. The HeLa cell derivative KB-3-1 and the colchicine-selected, highly ABCB1-overexpressing subline KB-C-1 were generously donated by Dr. D. W. Shen, Bethesda, MD. RKOp53wt colon cancer cells together with the RKOp53KO (homozygous knock-out) subline[60] were generously provided by Dr. Vogelstein from John Hopkins University, Baltimore. The correct origin of all cell models was confirmed by STR during performance of the experiments. All cell lines were cultured in RPMI1640 culture medium supplemented with 10% heat-inactivated fetal bovine serum, 2% L-glutamine (0.6 mg/mL), 2% penicillin/streptomycin (200 IU/mL and 200 μg/mL) and 0.1 mg/mL gentamicin.
(§2) The MTT (3-(4,5-dimethylthiazol-2-yl)-2,5-diphenyl tetrazolium bromide) colorimetric assay has been conducted as described previously. Briefly, cells were seeded 24 h before their treatment with each compound for a period of 72 h. The concentrations tested ranged from 10 nM to 100 µM. Each assay was conducted in sextuplicates. The number of independent experiments is mentioned in the legend of the tables.
(§3) SI Table 1: IC50 determined by MTT assays. Mean concentration (± standard deviation) in µM required to
(§4) reduce the viability of cells by 50% after a 72 h treatment relative to the control.
(§5) Parental sensitive models Drug-resistant models

The subject of a further assay is U373. Kind of assay: MTT colorimetric assay, U373. Type of assay: cell-based. Conditions: Homo sapiens, U373 MG; 72 h treatment; mean ± SEM; resistant to apoptosis; read-out: IC50 determined by MTT assays, U373. The method in brief:
(§6)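 Cell lines cultured in RPMI1640 with 10% heat-inactivated FBS. Cells seeded 24 h before 72 h compound exposure over 10 nM to 100 µM, sextuplicate wells. Viability read by MTT colorimetric assay.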

The subject of another assay is A2780R. Kind of assay: MTT assay, A2780R (cisplatin-resistant). Type of assay: cell-based. Particulars: 72 h, read-out: IC50 determined by MTT assays, A2780R.
Description: as §1, §2, §3, §4, §5

The subject of another assay is A2780. The experiment in a line: MTT assay, A2780 (parental sensitive). It is filed as cell-based. Conditions: Homo sapiens, A2780, 72 h, read-out: IC50 determined by MTT assays, A2780.
Description: as §1, §2, §3, §4, §5

In the next assay the test system is MCF7. Kind of assay: MTT colorimetric assay, MCF7. Type of assay: cell-based. Conditions: Homo sapiens, 72 h treatment, mean ± SEM, sensitive to apoptosis, read-out: IC50 determined by MTT assays, MCF7. A digest of the protocol:
as §6

Assay [1] concerns A549, SKMEL-28, U373, MCF7, Hs683, B16F10. Kind of assay: MTT colorimetric assay, mean of the six cell lines. Type of assay: cell-based. Conditions: for IC50: mean over the six cell lines, 72 h treatment, read-out: IC50 determined by MTT assays, Mean. The method in brief:
as §6

In the next assay the test system is Hs683. The experiment in a line: MTT colorimetric assay, Hs683. It is filed as cell-based. Particulars: Homo sapiens, Hs 683; 72 h treatment; mean ± SEM; sensitive to apoptosis; read-out: IC50 determined by MTT assays, Hs683. The method in brief:
as §6

A further assay has as its system B16F10. The experiment in a line: MTT colorimetric assay, B16F10. It is filed as cell-based. Particulars: Mus musculus, B16-F10; 72 h treatment; mean ± SEM; sensitive to apoptosis; read-out: IC50 determined by MTT assays, B16F10. A digest of the protocol: as §6
Another assay deals with Hct116/OxR. Kind of assay: MTT assay, Hct116/OxR (oxaliplatin-resistant). Type of assay: cell-based. Particulars: Homo sapiens, HCT-116, 72 h, read-out: IC50 determined by MTT assays, Hct116/OxR.
Description: as §1, §2, §3, §4, §5

The subject of a further assay is Hct116. The experiment in a line: MTT assay, Hct116 (parental sensitive). Type of assay: cell-based. Conditions: Homo sapiens, HCT-116, 72 h, read-out: IC50 determined by MTT assays, Hct116.
Description: as §1, §2, §3, §4, §5

For the next assay, the system named is RKO/p53ko. Kind of assay: MTT assay, RKO/p53ko. Conditions: 72 h, read-out: IC50 determined by MTT assays, RKO/p53ko. It is filed as cell-based.
Description: as §1, §2, §3, §4, §5

For assay [2], the system named is Parental sensitive models. Kind of assay: MTT assay, mean of parental sensitive models. Type of assay: cell-based. Particulars: 72 h, read-out: IC50 determined by MTT assays, mean of parental sensitive models.
Description: as §1, §2, §3, §4, §5

For the next assay, the system named is KB-C-1. The experiment in a line: MTT assay, KB-C-1 (ABCB1-overexpressing). Conditions: KBC-1, 72 h, read-out: IC50 determined by MTT assays, KB-C-1. Type of assay: cell-based.
Description: as §1, §2, §3, §4, §5

The target in another assay is T1, human TopIIa (Homo sapiens, UniProt P11388).
T1 construct: purchased TopoGen (Port Orange, FL, USA)
T1 sequence (P11388 whole entry): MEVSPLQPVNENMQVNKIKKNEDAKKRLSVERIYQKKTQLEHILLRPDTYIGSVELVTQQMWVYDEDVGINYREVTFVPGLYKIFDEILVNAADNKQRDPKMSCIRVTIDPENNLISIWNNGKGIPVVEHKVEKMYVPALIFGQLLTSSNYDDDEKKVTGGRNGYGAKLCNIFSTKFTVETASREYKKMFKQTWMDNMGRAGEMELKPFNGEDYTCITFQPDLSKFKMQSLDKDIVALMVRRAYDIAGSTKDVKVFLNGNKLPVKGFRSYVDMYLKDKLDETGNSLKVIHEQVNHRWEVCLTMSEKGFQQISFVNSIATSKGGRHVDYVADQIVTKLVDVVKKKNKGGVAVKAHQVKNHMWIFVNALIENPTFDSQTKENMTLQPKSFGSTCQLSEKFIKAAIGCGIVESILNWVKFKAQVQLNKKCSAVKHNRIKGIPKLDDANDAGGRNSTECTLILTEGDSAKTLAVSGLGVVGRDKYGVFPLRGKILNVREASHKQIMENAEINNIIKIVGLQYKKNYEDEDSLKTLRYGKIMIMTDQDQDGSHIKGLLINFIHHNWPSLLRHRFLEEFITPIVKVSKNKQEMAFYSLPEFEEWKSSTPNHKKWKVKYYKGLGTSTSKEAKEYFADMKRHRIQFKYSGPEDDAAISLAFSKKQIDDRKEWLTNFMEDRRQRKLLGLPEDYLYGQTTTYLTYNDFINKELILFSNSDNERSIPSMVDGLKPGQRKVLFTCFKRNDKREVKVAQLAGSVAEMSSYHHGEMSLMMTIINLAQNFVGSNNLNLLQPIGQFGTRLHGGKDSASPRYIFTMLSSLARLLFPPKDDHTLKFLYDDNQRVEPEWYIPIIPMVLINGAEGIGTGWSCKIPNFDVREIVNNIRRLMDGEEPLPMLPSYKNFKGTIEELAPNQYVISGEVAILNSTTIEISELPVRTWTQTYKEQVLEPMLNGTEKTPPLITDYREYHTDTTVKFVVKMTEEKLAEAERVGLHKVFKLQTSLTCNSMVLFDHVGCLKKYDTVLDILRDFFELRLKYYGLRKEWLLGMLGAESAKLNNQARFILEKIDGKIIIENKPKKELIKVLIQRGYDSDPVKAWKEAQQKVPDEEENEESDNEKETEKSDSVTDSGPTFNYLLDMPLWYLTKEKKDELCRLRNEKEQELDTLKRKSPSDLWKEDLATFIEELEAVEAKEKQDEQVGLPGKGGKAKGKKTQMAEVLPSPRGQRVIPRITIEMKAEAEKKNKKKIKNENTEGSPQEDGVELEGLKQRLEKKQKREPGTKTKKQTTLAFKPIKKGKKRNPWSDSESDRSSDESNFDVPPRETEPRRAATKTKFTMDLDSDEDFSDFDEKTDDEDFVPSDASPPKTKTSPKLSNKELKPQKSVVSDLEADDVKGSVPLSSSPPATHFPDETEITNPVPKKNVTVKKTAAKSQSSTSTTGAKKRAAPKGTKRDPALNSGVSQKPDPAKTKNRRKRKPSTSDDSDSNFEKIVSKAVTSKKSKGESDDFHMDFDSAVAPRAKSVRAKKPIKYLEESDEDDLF
The experiment in a line: Cell-free decatenation assay. It is filed as biochemical. Here is the method:
The topoisomerase (Top) activity assay kit, including kinetoplast DNA (kDNA and recombinant human TopIIa enzyme, was obtained from TopoGen (Port Orange, FL, USA), agarose from PeqLab (Erlangen, Germany), 50 × TAE buffer from Roth (Karlsruhe, Germany) and ethidium bromide solution (10 mg/mL) from Sigma-Aldrich (Taufkirchen, Germany). Decatenation assays were performed as described previously[62] with slight modifications according to the manufacturer’s protocol. 100 µM of the recently described dual topoisomerase poison P8-D6 served as a positive control, and 5% DMSO as a solvent control. Briefly, the compounds were dissolved in DMSO and diluted to 20× the concentration to be tested. 1 µL of the resulting stock solutions were mixed with 18 µL of a buffer containing 200 ng kDNA and 1 mM ATP. Subsequently, 1 µL of a 1u/µL dilution of TopIIa enzyme was added and incubated at 37 °C for 30 min. Afterwards, the reaction was stopped by addition of Stop buffer, and electrophoresis was carried out on a 1% agarose gel in TAE buffer. The gel was stained with 0.5 µg/mL ethidium bromide, washed with water, and fluorescence images were captured with the LAS4000 system (Fujifilm, Duesseldorf, Germany). All steps were carried out on ice.

Another assay deals with RKO/P53wt. The experiment in a line: MTT assay, RKO/P53wt (parental sensitive). Type of assay: cell-based. Conditions: 72 h, read-out: IC50 determined by MTT assays, RKO/P53wt.
Description: as §1, §2, §3, §4, §5

The next assay deals with A549. Kind of assay: MTT colorimetric assay, A549. Type of assay: cell-based. Particulars: Homo sapiens, 72 h treatment, mean ± SEM of six replicates of one experiment (1: 7, 13: 6 independent experiments), resistant to apoptosis, read-out: IC50 determined by MTT assays, A549. The method in brief: as §6

As for `C=C[C@]1(C)C=C2C(=O)[C@@]3(O)OC(=O)[C@@]4(CCCC(C)(C)[C@H]34)[C@@]2(O)CC1` [Compound 1, sphaeropsidin A, reference compound], the IC50 in the assay with Drug-resistant models was 4000 nM; in the assay with U373, 2130 ± 170 nM; in the assay on A2780R, 2400 ± 100 nM; in the assay with A2780, 2400 ± 500 nM; in the assay with MCF7, 2410 ± 350 nM; in assay [1] (72 h) it was 2070 ± 150 nM. In addition, the IC50 stood at 2310 ± 230 nM with Hs683; 1550 ± 270 nM with B16F10; 1700 ± 400 nM in the assay with Hct116/OxR; 3400 ± 500 nM with Hct116; 1500 ± 100 nM with RKO/p53ko; 3000 nM in assay [2]. In addition, the IC50 in the assay on KB-C-1 is 8100 ± 700 nM; in the assay with RKO/P53wt, 1900 ± 300 nM; in the assay with A549, 1710 ± 260 nM. Also, on human TopIIa (at 500 µM, read-out: TopoIIa inhibition), the inhibition at 500 µM was approximately 50%.

Consider `CC1(C=CCCCc2ccc3ccc4cccc5ccc2c3c45)C=C2C(=O)C3(O)OC(=O)C4(CCCC(C)(C)C34)C2(O)CC1` (stereo not drawn) [Compound 13], for which the IC50 in the assay on Drug-resistant models stood at 2000 nM; in the assay with U373, 570 ± 80 nM; with A2780R it was 1600 ± 90 nM; in the assay with A2780, 1600 ± 20 nM; in the assay on MCF7 it was 300 ± 20 nM; in assay [1] (72 h) it was 300 nM. Moreover, the IC50 was determined as 370 ± 40 nM in [1]; 350 ± 20 nM in the assay with Hs683; 290 ± 10 nM in the assay with B16F10; 800 ± 50 nM with Hct116/OxR; 1000 ± 100 nM with Hct116; 1500 ± 50 nM in the assay with RKO/p53ko. For the same compound, the IC50 in assay [2] is 1000 nM; in the assay on KB-C-1, 3200 ± 600 nM; in the assay on RKO/P53wt, 1100 nM; with A549, 380 ± 30 nM. Moreover, the “IC50 fold lower than compound 1” value in assay [1] (cancer cell panel, MTT) is given as 5–10 times. The “concentration from which TopIIa inhibition trend was observed” value on human TopIIa was not below 1 µM. Moreover, the “concentration significantly different from the solvent control (TopIIa inhibition)” value on human TopIIa is recorded as not below 1 µM.

`CC1(C=CCCCc2ccc3ccc4cccc5ccc2c3c45)C=C2C(O)C3(O)OC(=O)C4(CCCC(C)(C)C34)C2(O)CC1` (stereo not drawn) [Compound 16]: the IC50 with Drug-resistant models is 9000 nM; in the assay on U373, 8880 ± 190 nM; in the assay on A2780R, 8300 ± 300 nM; in the assay with A2780, 7700 ± 900 nM; with MCF7 it was 5980 ± 190 nM; in assay [1] (72 h), 6860 ± 530 nM. Besides, the IC50 in the assay on Hs683 turned out to be 7340 ± 200 nM; in the assay on B16F10 it was 5110 ± 420 nM; in the assay on Hct116/OxR, 6600 ± 1300 nM; with Hct116, 7100 ± 200 nM; in the assay on RKO/p53ko, 6900 ± 400 nM; in [2], 8000 nM. The IC50 with KB-C-1 was found to be 15200 ± 1300 nM; in the assay with RKO/P53wt, 5600 ± 200 nM; in the assay with A549, 6610 ± 80 nM. For the same compound, the “concentration from which TopIIa inhibition trend was observed” value at human TopIIa is reported as not below 1 µM.
